Test [1] concerns colchicine site on tubulin (porcine brain tubulin). The test is described as follows: Colchicine displacement assay, fluorometric detection. In kind it is binding. To be noted: compound 20 μM, colchicine 2 μM, porcine brain tubulin 2 μM, 2 h; control = colchicine bound to tubulin. As to the method: To study whether the compounds bind to the colchicine site on tubulin, a colchicine displacement assay using fluorometric detection was performed as previously described (Bhattacharyya B. et al.; Proc Natl Acad Sci USA 1974, 71:2627-31; Risinger A L. et al.; J Pharmacol Exp Ther 2011; 336:652-60). Porcine brain tubulin at 2 μM (Cytoskeleton) in a buffer consisting of 80 mM PIPES, 2 mM MgCl2, 0.5 mM EGTA at pH 7.0 with addition of 1 mM GTP, was incubated alone, with 2 μM colchicine or with 2 μM colchicine in the presence of test compounds or reference compound combretastatin A4 at 20 μM for 2 h in a black half-area 96-well plate (Corning Inc, Corning, N.Y., USA). Thereafter, the fluorescence was measured using a FLUOStar Optima (BMG Labtech) at an excitation of 380 nm and emission of 440 nm. The results are presented as percent of control i.e. colchicine bound to tubulin.

Test [2] has as its system acute lymphoblastic leukemia cell line CCRF-CEM. The test is described as follows: Fluorometric Microculture Cytotoxicity Assay (FMCA) in CCRF-CEM cells. Particulars: Homo sapiens, FMCA after 72 h. It counts as cell-based. From the text: (§1) The Fluorometric Microculture Cytotoxicity Assay, FMCA (Larsson, R., et al.; Anticancer Res, 1989, 9, 1111-1119), is a three day non-clonogenic microplate-based cell viability assay used for measurement of the cytotoxic and/or cytostatic effect of compounds in vitro (Lindhagen, E. et al.; Nat. Protoc., 2008, 3, 1364-1369). FMCA represents a valuable method to measure cytotoxicity in a number of cell types, both cell lines and primary cells from patients (Larsson, R., et al.; Int. J. Cancer, 1992, 50, 177-185; Fridborg, H., et al.; Eur. J. Cancer, 1999. 35, 424-432; Dhar, S., et al.; Br. J. Cancer, 1996, 74, 888-896).
(§2) FMCA is based on the principle that fluorescein diacetate (FDA) is converted to the fluorescent probe fluorescein by esterases […]. For experiments, 96-well microplates are prepared with compounds and stored at −20° C. or −70° C. until use. Cells are then seeded into the drug-prepared plates and placed in an incubator for 72 h. On the last day of incubation, the plates are washed and a buffer containing FDA is added and incubated with the cells for 45 minutes. Finally the fluorescence per well is measured in a fluorometer and a Survival Index % (SI) for each compound-treated well is calculated with the equation: Compound-treated cells minus blank divided by control cells minus blank. A high SI-value indicates a large percentage of living cells and vice versa.
For experiments with compounds of the invention, 96-well plates were prepared as follows:
Compounds were dissolved in DMSO to 10 mM and stored at −20° C. The test compounds were thawed, protected from light, mixed, and 3 μl stock solution was added to test tubes containing 297 μl culture medium RPMI-1640, to give the concentration 100 μM. Then, compounds were serially diluted to concentrations ten times higher than the desired test concentrations. Finally, 20 μl of each compound solution was added in duplicates to wells in two V-bottomed 96-well plates. The plates were stored at −20° C. until use.
On the day of cell seeding, 180 μl of cell suspension was added to each well in the two assay plates. The final concentrations of compounds tested were 10 μM, 1 μM, 0.1 μM and 0.01 μM. The experiment was performed twice.
In subsequent experiments, compounds were tested, along with a number of approved cancer drugs (dasatinib and pazopanib) as described above. The acute lymphoblastic leukemia cell line CCRF-CEM was used throughout. In the assay plates, medium was added to eight empty wells (blank wells) and wells filled with cell suspension served as control wells. SI-values were then calculated for each compound-treated well as described above. All experiments were conducted twice and a new batch of plates was prepared for each experiment.
(§3) To obtain EC50-values, plates were prepared with compounds serially diluted in culture media to suitable concentration ranges for each compound. Thereafter cells were added at a density of 10 000 cells per well and FMCA was performed after 72 h. Data analysis was performed using GraphPadPrism software, where SI values for each concentration were plotted on a log scale and processed with non-linear regression and a standard sigmoidal dose-response model.

Test [3] relates to A2780 (ovarian cancer). As to the kind of experiment: FMCA cell viability in ovarian cancer cell line A2780. Particulars: Homo sapiens; A2780 ovarian cancer cells. It counts as cell-based.
Description: as §1, §2, §3
(§4) The compounds of the invention were also tested on further cancer cell lines related to ovarian cancer (A2780; see e.g. Hamilton, T. et al.; Semin. Oncol., 1984, 11, 285-298) and multidrug-resistant ovarian cancer (A2780/Adr). The known microtubule interfering agents vincristine and paclitaxel were included as references in the resistant and non-resistant ovarian cancer cell lines.

Test [4] has as its system A2780/Adr (multidrug-resistant ovarian cancer). The test is described as follows: FMCA cell viability in multidrug-resistant ovarian cancer cell line A2780/Adr. It counts as cell-based. Particulars: A2780/Adr multidrug-resistant ovarian cancer cells.
Description: as §1, §2, §3, §4

Test [5] deals with bovine tubulin protein. As to the kind of experiment: Tubulin polymerization assay kit (Cytoskeleton Inc), fluorescence. Particulars: for IC50: cell-free, example compounds at 1, 3 and 10 μM, controls at 3 μM, 60 min, read-out: Inhibition of tubulin polymerization IC50; for inhibitory effects on tubulin polymerization (in words): cell-free, 1, 3 and 10 μM. It counts as biochemical. Here is the method:
Example compounds were further tested in a tubulin polymerization assay kit from Cytoskeleton Inc (Denver, Colo., USA). Polymerization is followed by fluorescence enhancement due to the incorporation of a fluorescent reporter into microtubules as polymerization occurs. Vincristine and paclitaxel at 3 μM were used as positive controls for tubulin polymerization inhibition and stabilisation, respectively. All compounds were dissolved in DMSO, which was used as solvent control. For experiments, example compounds (1, 3, and 10 μM) and control compounds (3 μM) were incubated with bovine tubulin protein in a cell-free environment and the fluorescence was then measured in a fluorometer (Fluostar Optima, BMG Labtech, Offenburg, Germany) at 360/450 nm every minute for a total of 60 mins.

SMILES strings stand for the structures.

As to `COc1ccc(/C=C\c2cc(OC)c(OC)c(OC)c2)cc1O` [Combretastatin A4, combretastatin A4, reference compound], the “Colchicine-tubulin binding Percent of control” value in test [1] is 66% of control.

In the case of `CCOc1ccc2[nH]cc(CCNc3nc(C)cc(Nc4ccc5[nH]ccc5c4)n3)c2c1` [Example 4, N^2-[2-(5-ethoxy-1H-indol-3-yl)ethyl]-N^4-(1H-indol-5-yl)-6-methyl-pyrimidine-2,4-diamine], the values for the EC50 in test [2], in test [3] and in test [4] were 800 nM, 950 nM and 930 nM, respectively. The IC50 in test [5] is over 10000 nM.

As for `CCOc1ccc2[nH]cc(CCNc3nccc(Nc4ccc5c(c4)nc(C)n5C)n3)c2c1` [Example 1, N^4-(1 2-dimethyl-1H-benzo[d]imidazol-5-yl)-N^2-[2-(5-ethoxy-1H-indol-3-yl)ethyl]pyrimidine-2,4-diamine], the EC50 came to 12 nM in test [2], 17 nM in test [3] and 380 nM in test [4]. Besides, the “inhibitory effects on tubulin polymerization (in words)” value (“inhibitory effects” for short) in test [5] is on record as “showed inhibitory effects on tubulin polymerization”. In test [5], the IC50 was 1000 to 3000 nM. The “Colchicine-tubulin binding Percent of control” value in test [1] is on record as 95% of control.

`CC(=O)O[C@H]1C(=O)[C@@]2(C)[C@H]([C@H](OC(=O)c3ccccc3)[C@]3(O)C[C@H](OC(=O)[C@H](O)[C@@H](NC(=O)c4ccccc4)c4ccccc4)C(C)=C1C3(C)C)[C@]1(OC(C)=O)CO[C@@H]1C[C@@H]2O` [Paclitaxel, paclitaxel, reference compound]: the values for the concentration for a half-maximal effect (EC50) in test [3] and in test [4] were 0.26 nM and 810 nM, respectively.

In the case of `COc1ccc2[nH]cc(CCNc3nc(C)cc(Nc4cccc5c4ccn5C)n3)c2c1` [Example 7, N^2-[2-(5-methoxy-1H-indol-3-yl)ethyl]-6-methyl-N^4-(1-methylindol-4-yl)pyrimidine-2,4-diamine], the EC50 in test [2] amounted to 32 nM; in test [3], 12 nM; in test [4] it was 53 nM.

With `COc1ccc2[nH]cc(CCNc3nc(C)cc(Nc4ccc5cc(C)[nH]c5c4)n3)c2c1` [Example 5, N^2-[2-(5-methoxy-1H-indol-3-yl)ethyl]-6-methyl-N^4-(2-methyl-1H-indol-6-yl)pyrimidine-2,4-diamine], the EC50 in test [2] worked out at 100 nM; in test [3] it was 130 nM; in test [4], 400 nM. In test [5], the “inhibitory effects” value is listed as “showed inhibitory effects on tubulin polymerization”. Also, the IC50 in test [5] is 3000 to 10000 nM.

Regarding `CCOc1ccc2[nH]cc(CCNc3nc(C)cc(Nc4ccc5cc(C)[nH]c5c4)n3)c2c1` [Example 6], the EC50 in test [2] was found to be 69 nM; in test [3], 170 nM; in test [4], 450 nM.

Regarding `COc1ccc2[nH]cc(CCNc3nccc(Nc4cccc5c4ncn5C)n3)c2c1` [Example 2, N^2-[2-(5-methoxy-1H-indol-3-yl)ethyl]-N^4-(1-methylbenzimidazol-4-yl)pyrimidine-2,4-diamine], the EC50 in test [2] is 9.7 nM; in test [3], 3.3 nM; in test [4] it was 17 nM. Moreover, the “inhibitory effects” value in test [5] is given as “showed inhibitory effects on tubulin polymerization”. Further, the IC50 in test [5] lay within 1000 to 3000 nM. In test [1], the “Colchicine-tubulin binding Percent of control” value is recorded as 81% of control.

With `Cc1ccc(Nc2nccc(N(C)c3ccc4c(C)n(C)nc4c3)n2)cc1S(N)(=O)=O` [Ref. 2, pazopanib, reference compound], in test [2], a half-maximal response (EC50) required 25900 nM.

In test [2], `Cc1nc(Nc2ncc(C(=O)Nc3c(C)cccc3Cl)s2)cc(N2CCN(CCO)CC2)n1` [Ref. 1, dasatinib, reference compound] returned an EC50 of 9700 nM.

In the case of `CCOc1ccc2[nH]cc(CCNc3nc(C)cc(Nc4cccc5c4ccn5C)n3)c2c1` [Example 8, N^2-[2-(5-ethoxy-1H-indol-3-yl)ethyl]-6-methyl-N^4-(1-methylindol-4-yl)pyrimidine-2,4-diamine], the results for the EC50 in test [2], in test [3] and in test [4] were 110 nM, 48 nM and 130 nM, respectively. In addition, in test [5], the “inhibitory effects” value is recorded as “showed inhibitory effects on tubulin polymerization”. Besides, in test [5], the IC50 was about 3000 nM. Besides, in test [1], the “Colchicine-tubulin binding Percent of control” value is on record as 82% of control.

In the case of `CC[C@]1(O)C[C@H]2CN(CCc3c([nH]c4ccccc34)[C@@](C(=O)OC)(c3cc4c(cc3OC)N(C=O)[C@H]3[C@@](O)(C(=O)OC)[C@H](OC(C)=O)[C@]5(CC)C=CCN6CC[C@]43[C@@H]65)C2)C1` [Vincristine, vincristine, reference compound], the EC50 in test [3] is 0.22 nM; in test [4] it was 210 nM. For the same molecule, the IC50 in test [5] was under 3000 nM.

Consider `CCOc1ccc2[nH]cc(CCNc3nccc(Nc4cccc5c4ncn5C)n3)c2c1` [Example 3, N^2-[2-(5-ethoxy-1H-indol-3-yl)ethyl]-N^4-(1-methylbenzimidazol-4-yl)pyrimidine-2,4-diamine], for which the EC50 in test [2] stood at 5.6 nM; in test [3], 9.2 nM; in test [4], 24 nM.

What is called EC50 is the concentration needed to bring the measured effect to its halfway point. As usually defined, the IC50 is the midpoint of a concentration-inhibition curve.

(Values after patent publication US20150252026A1, “4-(INDOLYL OR BENZIMIDAZOLYL)AMINO-2-(2-(INDOL-3-YL)ETHYL)AMINOPYRIMIDINES USEFUL FOR THE TREATMENT OF CANCER” (NOVIGA RESEARCH AB, priority 2012, published 2015).)
